Entries after “also recorded” stand apart in the source; their conditions may differ.
Assays:
prolactin secretion = assay: Prolactin secretion inhibition in reserpine-treated rats; type: in vivo, rat (adult male Sprague-Dawley); settings: 1 mg./kg. intraperitoneal; reserpine-pretreated male rats; serum 1 hour after treatment
Experimental: The compounds of this invention are also useful as inhibitors of prolactin secretion. Dopaminergic drugs with such activity can be employed in the treatment of inappropriate lactation, such as postpartum lactation and galactorrhea. […] Each rat received an intraperitoneal injection of 2.0 mg. of reserpine in aqueous suspension 18 hours before administration of the test compound. The purpose of the reserpine was to keep prolactin levels uniformly elevated. The compounds under test were dissolved in water and were injected intraperitoneally at a 1 mg./kg. dose level. Each compound was administered to a group of 10 rats, and a control group of 10 intact males received an equivalent amount of solvent only. One hour after treatment all rats were killed by decapitation, and 150 μl. aliquots of serum were assayed for prolactin.
In the table, column 1 gives the name of the compound and column 2, the percent inhibition of prolactin secretion. The dosage was 1 mg./kg.

[1] = test system: 6-hydroxydopamine-lesioned rats (nigro-neostriatal-lesioned), turning behavior; assay: Turning behavior in 6-hydroxydopamine-lesioned rats; type: in vivo, rat; settings: 1 mg./kg. intraperitoneal; for Number of turns (average): counted over a 15-minute period after latency
Description: Compounds with dopaminergic or dopamine agonist activity also affect turning behavior in a test procedure utilizing 6-hydroxydopamine-lesioned rats. In this test, nigro-neostriatal-lesioned rats, prepared by the procedure of Ungerstedt and Arbuthnott, Brain Res, 24, 485 (1970), are employed. A compound having dopamine agonist activity, upon injection, causes the rats to turn in circles contralateral to the side of the lesion. After a latency period, which varies from compound to compound, the number of turns is counted over a 15-minute period. The drugs to be administered are dissolved in water and the resulting aqueous solution injected into the rat by the intraperitoneal route at a 1 mg./kg. dose level.

[2] = test system: mean arterial blood pressure, anesthetized spontaneously hypertensive rats; assay: Blood pressure lowering in anesthetized spontaneously hypertensive rats (SHR); type: in vivo, rat (spontaneously hypertensive); settings: ± standard error
Experimental: As previously stated, the compounds of this invention are dopamine agonists. As such, one of their properties, shared by many dopamine agonists, is the ability to lower blood pressure in anesthetized spontaneously hypertensive rats (SHR). Table 1 which follows gives the results of testing compounds of this invention which lowered the blood pressure of anesthetized SHR at dose levels of 1 mg./kg. or lower. In the Table, the first 4 columns give the substitution pattern of the hydroxyaminonaphthalene carboxamide and the second 4 columns the percent blood pressure lowering±standard error for the particular compound at 4 different dose levels.

dopamine receptor = settings: literature; cited from earlier work
[3] = literature; cited from earlier work

| Compound | Percent Inhibition of Prolactin Secretion (prolactin secretion) [%] | Percent lowering of mean arterial blood pressure ([2]; 1 mg./kg.) [%] | Percent lowering of mean arterial blood pressure ([2]; 7 mcg./kg.) [%] | Percent lowering of mean arterial blood pressure ([2]; 10 mcg./kg.) [%] | Percent lowering of mean arterial blood pressure ([2]; 100 mcg./kg.) [%] | dopamine-like activity (in words) (dopamine receptor) | further results |
| --- | --- | --- | --- | --- | --- | --- | --- |
| CCCN(CCC)C1CCc2c(ccc(O)c2C(N)=O)C1 (racemic) [dl-2-Hydroxy-6-di-n-propylamino-5,6,7,8-tetrahydro-1-naphthalenecarboxamide] | 12 | – | – | – | – | – | – |
| CN(C)C1CCc2cc(O)c(C(N)=O)cc2C1 (racemic) [dl-3-hydroxy-7-dimethylamino-5,6,7,8-tetrahydro-2-naphthalenecarboxamide] | 36 | -32.5 ± 2.2 | -6.2 ± 0.7 | -14.0 ± 0.5 | -25.1 ± 3.0 | – | Percentage of rats exhibiting turning behavior [1]: 50%; Number of turns (average) [1]: 20 |
| CN(C)C1CCc2c(ccc(O)c2O)C1 (centres unmarked) [Example M7, 2-dimethylamino-5,6-dihydroxy-1,2,3,4-tetralin] | – | – | – | – | – | dopamine-like activity; also recorded: Its action parallels that of apomorphine | – |
| CN(C)C1CCc2c(ccc(O)c2C(N)=O)C1 (racemic) [R=CONH2, R^1=H, R^2=Me, R^3=Me, dl-2-hydroxy-6-dimethylamino-5,6,7,8-tetrahydro-1-naphthalenecarboxamide] | – | -6.0 ± 0.5 | -6.8 ± 0.3 | -5.7 ± 0.3 | -6.7 ± 0.8 | – | – |
| NC(=O)c1c(O)ccc2c1CCC(N)C2 (racemic) [dl-2-Hydroxy-6-amino-5,6,7,8-tetrahydronaphthalene-1-carboxamide] | 13 | – | – | – | – | – | – |
| NC1CCc2cc(O)c(O)cc2C1 (centres unmarked) [ADTN, 2-amino-6,7-dihydroxy-1,2,3,4-tetralin] | – | – | – | – | – | dopamine-like action | – |
| CN(C)C1CCc2cc(O)c(O)cc2C1 (stereo not drawn) [6,7-dihydroxy isomer] | – | – | – | – | – | presynaptic dopamine receptor agonist | – |
| CCCN(CCC)C1CCc2cc(O)c(C(N)=O)cc2C1 (racemic) [dl-3-Hydroxy-7-di-n-propylamino-5,6,7,8-tetrahydro-2-naphthalenecarboxamide] | 88 | -41.9 ± 1.6 | -6.8 ± 0.5 | -19.6 ± 0.8 | -35.9 ± 2.3 | – | Percentage of rats exhibiting turning behavior [1]: 75%; Number of turns (average) [1]: 71 |
| CC(C)NC1CCc2c(ccc(O)c2CO)C1O (centres unmarked) [1-hydroxymethyl-2,5-dihydroxy-6-isopropylamino-5,6,7,8-tetrahydronaphthalene] | – | – | – | – | – | – | bronchodilator activity (in words) [3]: bronchodilator |
| NC(=O)c1cc2c(cc1O)CCC(N)C2 (racemic) [dl-3-Hydroxy-7-amino-5,6,7,8-tetrahydro-2-naphthlenecarboxamide] | 18 | -18.3 ± 4.3 | -3.6 ± 0.4 | -5.2 ± 0.8 | -10.2 ± 1.2 | – | – |

— US4500545A, “Hydroxyaminotetralincarboxamides” (Eli Lilly and Company, priority 1984, dated 1985)
